In patent US9840478B2 (MERCK SHARP & DOHME CORP., priority 2013, dated 2017) one finds IC50 data, which are given here for 9 compounds.

The subject of this test is HIV-1 (H9IIIB strain). As to the kind of experiment: Cell-based HIV infection assay using a reporter (Cell-Based), MT4-GFP cells. As to conditions: Human immunodeficiency virus 1, MT4-GFP cells infected with HIV-1 H9IIIB; 50% normal human serum; mean of at least two independent experiments; read-out: Cell-based IP. The procedure, abridged: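 MT4-GFP cells (HIV LTR-driven GFP) infected 24 h with HIV-1 H9IIIB at low MOI, then washed and plated with compounds in RPMI + 50% normal human serum, 0.4% DMSO final. Green cells counted at 24 and 48 h; R0 = 48 h/24 h ratio, inhibition normalized to DMSO and triple-drug control; IC50 from 4-parameter fit.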
On to `COC(=O)N[C@H](C(=O)Nc1cccc(F)c1CC[C@H]1CNC[C@H](C)N1S(=O)(=O)c1ccccc1)[C@@H](c1ccc(Cl)cc1)c1cccc(F)c1` [Example 185, (βS)-4-chloro-N-(3-fluoro-2-{2-[(2S,6S)-6-methyl-1-(phenylsulfonyl)piperazin-2-yl]ethyl}phenyl)-β-(3-fluorophenyl)-Nα-(methoxycarbonyl)-L-phenylalaninamide], for which the IC50 was determined as 28 nM.

For the compound `COc1ccc([C@H](c2ccc(Cl)cc2)[C@H](N)C(=O)Nc2cccc(F)c2CC[C@H]2CNC[C@H](C)N2S(=O)(=O)c2ccccc2)cn1` [Example 118, (βS)-4-chloro-N-(3-fluoro-2-{2-[(2S,6S)-6-methyl-1-(phenylsulfonyl)piperazin-2-yl]ethyl}phenyl)-β-(6-methoxypyridin-3-yl)-L-phenylalaninamide], the IC50 was 12 nM.

Turning to `C[C@@H]1CNC[C@H](CCc2c(F)cccc2NC(=O)[C@@H](N)[C@@H](c2cc(F)cc(F)c2)C2CCOCC2)N1S(=O)(=O)c1ccccc1` [Example 284, (βR)-3,5-difluoro-N-(3-fluoro-2-{2-[(2S,6R)-6-methyl-1-(phenylsulfonyl)piperazin-2-yl]ethyl}phenyl)-β-(tetrahydro-2H-pyran-4-yl)-L-phenylalaninamide], the IC50 was 40 nM.

Consider `C[C@@H]1CNC[C@H](CCc2c(F)cccc2NC(=O)[C@@H](N)[C@H](c2cccc(F)c2)c2cccc(Cl)c2)N1S(C)(=O)=O` [Example 169, (βR)-3-chloro-N-(3-fluoro-2-{2-[(2S,6R)-6-methyl-1-(methylsulfonyl)piperazin-2-yl]ethyl}phenyl)-β-(3-fluorophenyl)-L phenylalaninamide], for which the IC50 came out at 170 nM.

For `CC(C)[C@H](c1ccc(Cl)cc1)[C@H](N)C(=O)Nc1cncc(F)c1CC[C@H]1CNC[C@H](C)N1S(=O)(=O)C1CC1` [Example 177, (βR)-4-chloro-N-(4-{2-[(2S,6S)-1-(cyclopropylsulfonyl)-6-methylpiperazin-2-yl]ethyl}-5-fluoropyridin-3-yl)-β-(1-methylethyl)-L-phenylalaninamide], the IC50 came out at 95 nM.

On to `CC(C)[C@H](c1ccc(Cl)cc1)[C@H](N)C(=O)Nc1cccc(F)c1CC[C@H]1CNC[C@H](C)N1S(C)(=O)=O` [Example 122, (βR)-4-chloro-N-(3-fluoro-2-{2-[(2S,6S)-6-methyl-1-(methylsulfonyl)piperazin-2-yl]ethyl}phenyl)-β-(1-methylethyl)-L-phenylalaninamide], for which the IC50 stood at 360 nM.

Regarding `COC(=O)N[C@H](C(=O)Nc1cccc(F)c1CC[C@H]1CNC[C@H](C)N1S(=O)(=O)c1ccc(OC(F)(F)F)cc1)[C@@H](Cc1ccc(F)cc1)c1ccc(Cl)cc1` [Example 221, (βS)-4-chloro-β-(4-fluorobenzyl)-N-(3-fluoro-2-{2-[(2S,6S)-6-methyl-1-{[4-(trifluoromethoxy)phenyl]sulfonyl}piperazin-2-yl]ethyl}phenyl)-Nα-(methoxycarbonyl)-L-phenylalaninamide], the IC50 turned out to be 230 nM.

Turning to `O=C(C[C@@H](c1ccc(F)cc1)c1cc(F)cc(F)c1)Nc1cncc(F)c1CC[C@H]1CNCCN1S(=O)(=O)N1CCCCC1` [Example 325, (3S)-3-(3,5-difluorophenyl)-3-(4-fluorophenyl)-N-(5-fluoro-4-{2-[(2S)-1-(piperidin-1-ylsulfonyl)piperazin-2-yl]ethyl}pyridin-3-yl)propanamide], the IC50 is 13 nM.

As for `C[C@H]1CNC[C@H](CCc2c(F)cccc2NC(=O)[C@@H](N)[C@@H](c2ccc(Cl)cc2)C2CCOCC2)N1S(=O)(=O)c1ccccc1` [Example 131, (βR)-4-chloro-N-(3-fluoro-2-{2-[(2S,6S)-6-methyl-1-(phenylsulfonyl)piperazin-2-yl]ethyl}phenyl)-β-(tetrahydro-2H-pyran-4-yl)-L-phenylalaninamide], the IC50 turned out to be 17 nM.
